One data set deals with PC12 cells. Put plainly: DOPAL toxicity in vitro, viable PC12 cell count (trypan blue). The settings on record: for PC 12 cells/well × 103: rat. The protocol:
Determination of DOPAL toxicity in vitro Toxicity experiments were essentially as described previously. PC12 cultures were initially expanded in T-75 flasks with 20 ml Dulbecco's Modified Eagle's Medium supplemented with 4.5 g/l glucose, 4 mM L-glutamine, 5% fetal calf serum, 10% horse serum, 1000 units/l penicillin, and 100 mg/l streptomycin. Cells were transferred to six well culture plates with 2 ml media and grown to 1.5×10^5 cells/well, treated with 50 ng/ml nerve growth factor (NGF), and maintained in NGF-containing media for 7 d prior to experimentation. The medium was changed every 2-3 d. […] During the experiments, the medium was replaced once a day. Cells were detached with buffered saline containing EDT A, centrifuged at 200×g and resuspended in trypan blue for counting of viable cells. […] DOPAL and other compounds were added as described in the description of the figure and examples. Data was analyzed by ANOVA.
DOPAL, as well as other physiologically metabolites and adducts, were added to PC12 cells in culture at concentrations that were physiologically relevant.

A further data set deals with Substantia Nigra Neurons. The data set can be described thus: Unbiased stereology of substantia nigra neurons after DOPAL injection. The format is in vivo. Further details: TOTAL SNpc Neurons / TOTAL SNr Neurons / TH SNpc Neurons: dose or concentration left out as unconfirmed. The text has this:
Neuropathological Evaluation: Stereology The SN was included in 8-10 sections of all cases counted, and its total length was approximately 1.25 mm. Mean volume of the SNpc of control rats was […], while that of the SNpr was 777,696,500 m^3. Mean volume of the SNpc in the DOPAL injected rats was 264,674,833 m^3 while that of the SNpr was 760,212,500 m^3. There was no significant difference in mean volumes of SNpc or SNpr between controls and DOPAL injected rats. The inventors first counted TH immunoreactive neurons in the SNpc on the side of the DOPAL injection and compared them to those on the non-injected side. […] However, the inventors noted that numerous SNpc neurons sometimes were not stained for TH despite robust labeling of others (FIG. 3F). Thus, the inventors compared the number of Nissl stained profiles in sections immunostained with a-syn rather than TH in the SNpc's ipsilateral to the DOPAL injections to those of control rats which had received injections of a buffered saline solution into their SN's (Table 3). […] The inventors then determined whether DOPAL was toxic to neurons in the subjacent pars reticulata of the SN. The number of neurons in the SNpr of the DOPAL-injected rats was not different from the saline-injected rats (Table 3; FIG. 4C).
The effect of DOPAL injections into the substantia nigra on neurons in either the pars compacta (SNpc) or the pars reticularis (SNpr) are shown. Control animals were injected with buffered saline while experimental animals were injected with DOPAL (4 mg/800 nl). Unbiased stereology was used to assess the number of neurons (see Methods). Means (SD); n.s.=not significant.

In the next data set the test system is rats. The data set can be described thus: Rotational asymmetry after apomorphine. The class given is in vivo, rat. The settings on record: apomorphine 0.4 mg/kg, n=6, p, 0.05 vs control rats. The protocol: Determination of DOPAL-induced Parkinson's disease-like behavior Injections of DOPAL or ALDH1A1 antisense oligo into rat SN. To determine if increased levels of DOPAL in SN produces a behavioral model of PD, 3 groups of rats were tested: unilateral SN injection of 4 μg DOPAL in 6 rats; unilateral SN injection of 0.56 μg antisense oligonucleotide (oligo) targeted to aldehyde dehydrogenase (ALDH1A1) mRNA, the DOPAL catabolic enzyme in 3 rats; 5 non-injected rats. After 5-7 weeks, rats were injected with apomorphine (0.4 mg/kg, subcutaneously) and rotational asymmetry determined in each group just prior to sacrifice. After the brains were fixed and sectioned, the SN, and forebrain were stained immunohistochemically for tyrosine hydroxylase immunoreactivity (THir). See Section 3.
Determination of rotational asymmetry. Rats first were injected subcutaneously with the dopamine agonist apomorphine (0.4 mg/kg) dissolved in 0.1 ascorbate saline solution. After waiting 5 min in their home cage, they were placed in a hemispheric rotation bowl 40 cm wide and 20 cm deep. Rotational behavior was then determined for 30 min and the number of ipsilateral and contralateral turns quantified by observation.
Rotational asymmetry was assessed to quantify the effect of unilateral depletions of striatal dopamine from disruptions of nigrostriatal circuitry. The rotational asymmetry behavior of rats (n=6) changed dramatically after injections with DOPAL (FIG. 5).
Behavioral asymmetry is considered the standard behavioral test for rodent models of Parkinson's disease. The column on the right is a summary of all the behaviors recorded in the rotational asymmetry test for all the rats ([…]).

“Also recorded” adds a separate entry of the source.

On to `O=CCc1ccc(O)c(O)c1` [DOPAL, 3,4-dihydroxyphenylacetaldehyde], for which, in the data set on PC12 cells, the “toxic in vitro at physiological levels” value is listed as “toxic”. The “PC 12 cells/well × 103” value was 105 ± 12b cells/well × 103 in the data set on PC12 cells (6.6 μM), 107 ± 10b cells/well × 103 with PC12 cells (30 μM) and 100 ± 5a cells/well × 103 in the data set with PC12 cells (66 μM). Further, the “TOTAL SNpc Neurons” value with Substantia Nigra Neurons (DOPAL into substantia nigra, Means (SD), control 11926 (1084)) is on record as 6879 (422). Moreover, in the data set with Substantia Nigra Neurons (DOPAL into substantia nigra, Means (SD), control 11969 (3699)), the “TH SNpc Neurons” value is given as 5884 (1365). The “TOTAL SNr Neurons” value with Substantia Nigra Neurons (DOPAL into substantia nigra, Means (SD), control 12422 (832)) is given as 11761 (715). Further, in the data set on Substantia Nigra Neurons (p=0.001), the “number of Nissl-stained neurons in the SNpc, less than saline-injected rats” value amounted to 43%. In addition, in the data set with Substantia Nigra Neurons (p=0.032), the “mean number of TH immunoreactive SNpc neurons ipsilateral, less than contralateral non-injected side” value was determined as 50%. Further, the “number of neurons in the SNpr vs saline-injected rats” value with Substantia Nigra Neurons (rat, in vivo) is on record as “not different”. For the same molecule, in the data set with rats, the “rotational asymmetry after unilateral DOPAL injection into SN” value was “significantly preferred turning towards the side of the injection; also recorded: turning significantly towards the side of DOPAL injections”.
